Data as given in BindingDB's records for doi:10.1021/acschembio.7b00124 (University of Helsinki, 2017).
Where a SMILES comes first, the peptide text is derived from it. Bridges are numbered along the chain shown (N, C = ends). [ ]: non-standard residue; d: D form. ξ: configuration not given here. Thr(3ξ) = CC(O)[C@H](N)C(=O)O; hLys = NCCCCC[C@H](N)C(=O)O

Experiments:
Serine protease 1 = target: T1, Serine protease 1 (Bos taurus, UniProt P00760); assay: Protease Inhibition Assays; details: 37 °C
T1 sequence (P00760 whole entry): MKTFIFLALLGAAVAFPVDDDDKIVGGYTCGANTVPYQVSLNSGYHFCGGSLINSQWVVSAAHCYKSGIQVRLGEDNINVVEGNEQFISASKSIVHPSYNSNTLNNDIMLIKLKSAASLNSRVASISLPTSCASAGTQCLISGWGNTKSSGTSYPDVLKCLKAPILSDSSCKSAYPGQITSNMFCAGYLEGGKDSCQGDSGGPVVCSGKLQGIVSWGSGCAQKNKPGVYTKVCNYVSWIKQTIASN
Experimental: (§1) The inhibition assays were performed in 96-well microtiter plates as follows: 30 uL of the enzyme solution (trypsin [100 ug/mL] or elastase [1.5 U/mL]) and 60 uL of the buffer (50 mM Tris-HCl, 20 mM CaCl2 at pH 7.5) were pipetted into a series of six wells. A total of 10 uL of a 2000 uM peptide solution (microviridin variant) was then added to well 1 and serially diluted up to well 5; well 6 was used as the control. After completing the serial dilution of the sample, 10 uL was taken from well 5 and discarded to maintain the same volume in all wells. The plates were then incubated for 5 min at 37 °C, and subsequently 90 uL of the substrate solution (trypsin assay, N-benzoyl-DL-arginine-4-nitroanilide hydrochloride (BAPNA) [2.17 mg mL-1]; elastase assay, succinyl-Ala-Ala-Ala-p-nitroanilide (Suc-ALA3-pNA) [1 mg mL-1]) was added to each well. The enzymatic activity was measured spectrophotometrically (Varioscan Flash, Thermo Scientific) at 410 nm after incubation at 37 °C for 15 m

[1] = target: Chymotrypsin-like elastase family member 1 (Bos taurus, UniProt Q28153); assay: Protease Inhibition Assays; details: 37 °C
Experimental: as §1

Sequence of Chymotrypsin-like elastase family member 1 (Q28153 whole entry): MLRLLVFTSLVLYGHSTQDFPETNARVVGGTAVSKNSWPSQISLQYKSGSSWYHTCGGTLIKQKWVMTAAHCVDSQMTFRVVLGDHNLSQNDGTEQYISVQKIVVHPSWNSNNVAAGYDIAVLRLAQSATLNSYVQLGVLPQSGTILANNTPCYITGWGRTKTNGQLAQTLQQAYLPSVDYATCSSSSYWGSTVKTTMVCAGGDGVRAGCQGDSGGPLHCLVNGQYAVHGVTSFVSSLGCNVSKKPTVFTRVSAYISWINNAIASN

IC50 (Serine protease 1) [nM]	IC50 [1] [nM]	SMILES
28.4	–	CC(C)[C@H](NC(=O)[C@@H](N)[C@@H](C)O)C(=O)N[C@@H]1C(=O)N[C@@H](CCCNC(=N)N)C(=O)N[C@H]2CCCCNC(=O)C[C@@H](C(=O)N[C@@H](Cc3ccc(O)cc3)C(=O)O)NC(=O)[C@@H]3CCC(=O)OC[C@H](NC(=O)[C@@H]4CCCN4C(=O)[C@H](Cc4ccc(O)cc4)NC2=O)C(=O)N[C@@H](CC(=O)OC1C)C(=O)N[C@@H](Cc1c[nH]c2ccccc12)C(=O)N3 (some centres undefined) [MdnA3] (H-TV[Thr(3ξ)]RKYPSDWEDY-OH; ester 3-9, 8-11; lactam 5-12)
21.5	–	CC(C)[C@H](NC(=O)[C@@H](N)Cc1ccc(O)cc1)C(=O)N[C@@H]1C(=O)N[C@@H](CCCCCN)C(=O)N[C@H]2CCCCNC(=O)CC[C@@H](C(=O)N[C@@H](Cc3ccc(O)cc3)C(=O)O)NC(=O)[C@@H]3CCC(=O)OC[C@H](NC(=O)[C@@H]4CCCN4C(=O)[C@H](Cc4ccc(O)cc4)NC2=O)C(=O)N[C@@H](CC(=O)OC1C)C(=O)N[C@@H](Cc1c[nH]c2ccccc12)C(=O)N3 (some centres undefined) [MdnA6] (H-YV[Thr(3ξ)][hLys]KYPSDWEEY-OH; ester 3-9, 8-11; lactam 5-12)
–	1050	CC(C)C[C@@H]1NC(=O)[C@@H](NC(=O)[C@H](CC(N)=O)NC(=O)[C@H](CCC(N)=O)NC(=O)[C@@H](N)Cc2ccc(O)cc2)C(C)OC(=O)C[C@@H]2NC(=O)[C@@H]3COC(=O)CC[C@H](NC(=O)[C@H](Cc4c[nH]c5ccccc45)NC2=O)C(=O)N[C@H](C(=O)N[C@@H](Cc2ccc(O)cc2)C(=O)O)CCC(=O)NCCCC[C@H](NC1=O)C(=O)N[C@@H](Cc1ccc(O)cc1)C(=O)N1CCC[C@H]1C(=O)N3 (some centres undefined) [MdnA7] (H-YQN[Thr(3ξ)]LKYPSDWEEY-OH; ester 4-10, 9-12; lactam 6-13)
–	21800	CC(C)C[C@@H]1NC(=O)[C@@H](NC(=O)[C@H](C)N)C(C)OC(=O)C[C@@H]2NC(=O)[C@@H]3COC(=O)CC[C@H](NC(=O)[C@H](Cc4c[nH]c5ccccc45)NC2=O)C(=O)N[C@H](C(=O)N[C@@H](Cc2ccc(O)cc2)C(=O)O)CCC(=O)NCCCC[C@H](NC1=O)C(=O)N[C@@H](Cc1ccc(O)cc1)C(=O)N1CCC[C@H]1C(=O)N3 (some centres undefined) [MdnA8] (H-A[Thr(3ξ)]LKYPSDWEEY-OH; ester 2-8, 7-10; lactam 4-11)
